Data from US20110117008A1, “USE OF AVICINS TO DELIVER THERAPEUTIC AND DIAGNOSTIC AGENTS” (Research Development Foundation, priority 2007, published 2011).
Entries after “also recorded” stand apart in the source; their conditions may differ. Counter-ions that a name gives are not always drawn. Blank lines part the entries; values can stand above or below the compound they belong to. *1 amine or outer side, *2 acyl side, *3 side chain or, on linkers, in order; H or OH if unused. Where a SMILES comes first, the peptide text is derived from it. Bridges are numbered along the chain shown (N, C = ends). Roman numbers before positions name the chains, in order. [ ]: non-standard residue; d: D form. Actinocin(9to1) = Cc1c2oc3c(C)ccc(C(=O)[*:1])c3nc-2c(C(=O)[*:2])c(N)c1=O; NMeV = CN[C@H](C(=O)O)C(C)C; Sar = CNCC(=O)O

Key:
[1] = cited from earlier work
[2] = cited from earlier work; remark: listed apart in the source
[3] = system: full thickness porcine skin; test: Tritiated water transport through full thickness porcine skin, side by side diffusion cells, scintillation counting; type: in vitro ADME, pig; conditions: tritiated water in PBS, F094 10 mg/ml, Avicin D and Avicin G 1 mg/ml, 24 hours
Method: In addition, it was desired to access if the known enhancer N-Methyl Pyrrolidinone (NMP) might modulate skin's water permeability when codelivered. […] Each donor compartment solution was loaded with 5 μCi/ml (1 μg/ml) of tritiated (^3H) water. Receiver compartments were sampled at 0.5, 1, 2, 3, 6, 12, 18 and 24 hours.
Likewise, Avicin D and Avicin G solutions contained 1 mg/ml of Avicin D and G respectively, along with PBS and tritiated water (1 μg/ml, 5 μCi/ml).
(§1) Upon receipt, concentrated stock solutions were made in DMSO.

[4] = system: full thickness porcine skin; test: 3H-estradiol transport and percutaneous absorption, full thickness porcine skin, side by side diffusion cells; type: in vitro ADME, pig; conditions: 3H-estradiol in PBS; F094 5-20 mg/ml, Avicin D and Avicin G 1 mg/ml; 24 hours
Method: Each solution was loaded with 5 μCi/ml of 3H-Estradiol (Amersham TRK 322). Receiver compartments were sampled at 0.5 1, 2, 3, 6, 12, 18 and 24 hours.
Likewise, Avicin D and Avicin G solutions contained 1 mg/ml of Avicin D and G respectively, along with PBS and 3H-estradiol (5 μCi/ml).
as §1

[5] = Partition coefficient of anesthetics between octanol and water, HPLC; type: physicochemical; conditions: for Partition coefficient (octanol/water): as listed in Table 4; for Partition Coefficient: octanol/water
full thickness pig skin = test: Water soluble anesthetic transport in full thickness pig skin, HPLC quantification; conditions: for Maximum % Enhancement over control: highest enhancement of the anesthetic's permeability with F094
Source text: (§2) HPLC was used to quantify delivered mass, and to calculate permabilities in lag times. Error bar represents mean+/−standard deviation.
as §2

[6] = adults with previously untreated chronic myelogenous leukemia; cited from earlier work

Structure (SMILES): CC[C@@]1(O)C(=O)OCc2c1cc1n(c2=O)Cc2cc3ccccc3nc2-1 [camptothecin, Camptothecin]
- solubility in water [1]: poor water-solubility
- storage stability ([1]; stored at 2-8° C. in a dry, airtight, light-resistant environment): stable for at least two years

Structure (SMILES): COc1cccc2c1C(=O)c1c(O)c3c(c(O)c1C2=O)C[C@@](O)(C(C)=O)C[C@@H]3O[C@H]1C[C@H](N)[C@H](O)[C@H](C)O1 [Daunorubicin]
- oral / gastrointestinal absorption ([2]; in vivo, po): Oral absorption is poor

Structure (SMILES): C=C[C@](C)(O)CC/C=C(\CO)C(=O)O[C@H]1[C@H](O)[C@@H](O)[C@H](O[C@@](C)(C=C)CC/C=C(\CO)C(=O)O[C@H]2C[C@]3(C(=O)O[C@@H]4O[C@H](CO)[C@@H](O)[C@H](O)[C@H]4O[C@@H]4O[C@@H](C)[C@H](O[C@@H]5O[C@@H](CO)[C@H](O)[C@H]5O)[C@@H](O[C@@H]5O[C@H](CO)[C@@H](O)[C@H](O)[C@H]5O)[C@H]4O)[C@H](O)C[C@]4(C)C(=CC[C@@H]5[C@@]6(C)CC[C@H](O[C@@H]7O[C@H](CO[C@@H]8O[C@H](C)[C@H](O)[C@H](O)[C@H]8O[C@@H]8OC[C@@H](O)[C@H](O)[C@H]8O)[C@@H](O)[C@H](O)[C@H]7NC(C)=O)C(C)(C)[C@@H]6CC[C@]54C)[C@@H]3CC2(C)C)O[C@@H]1C [Avicin D]
- effect on water transport / water permeability of skin [3]: potent enhancer of water and estradiol permeability through the skin; also recorded: increases water permeability of skin as compared to Avicin G
- effect on water transport / water permeability of skin ([3]; listed as avicin D): differentially enhance water permeability
- effect on estradiol transport / estradiol permeability of skin [4]: potent enhancer of water and estradiol permeability through the skin; also recorded: increase estradiol permeability of skin as compared to Avicin G

- Partition coefficient (octanol/water) [5]: 1.7
- Partition Coefficient ([5]; 0 mg/ml F094): 3.3 ± 0.4
- Partition Coefficient ([5]; 1 mg/ml F094): 3.6 ± 0.5
- Partition Coefficient ([5]; 5 mg/ml F094): 4.1 ± 0.3
- Partition Coefficient ([5]; 10 mg/ml F094): 3.5 ± 0.8
- Permeability (full thickness pig skin): 0.71 ± 0.05 × 10^−3 (cm/hr)
- Lag time (full thickness pig skin; female, pig): 10.8 ± 1.1 h
Structure (SMILES): CCCCN1CCCCC1C(=O)Nc1c(C)cccc1C (stereo not drawn) [Bupivacaine HCl]
- Maximum % Enhancement over control (full thickness pig skin): 347%

- Partition coefficient (octanol/water) [5]: 0.43
- Partition Coefficient ([5]; 0 mg/ml F094): 0.47 ± 0.03
- Partition Coefficient ([5]; 1 mg/ml F094): 0.43 ± 0.02
- Partition Coefficient ([5]; 5 mg/ml F094): 0.51 ± 0.02
- Partition Coefficient ([5]; 10 mg/ml F094): 0.50 ± 0.01
- Permeability (full thickness pig skin): 0.46 ± 0.11 × 10^−3 (cm/hr)
Structure (SMILES): CCCNC(C)C(=O)Nc1ccccc1C (stereo not drawn) [Prilocaine HCl]
- Maximum % Enhancement over control (full thickness pig skin): 228%

Structure (SMILES): O=C(O)CCCc1ccc(N(CCCl)CCCl)cc1 [Chlorambucil, 4-[bis(2-chlorethyl)amino]benzenebutanoic acid]
- oral / gastrointestinal absorption ([2]; in vivo, po): rapidly and completely absorbed from the gastrointestinal tract
- terminal half-life ([2]; plasma): ~1.5 h

Structure (SMILES): CC[C@]1(O)C[C@H]2CN(CCc3c([nH]c4ccccc34)[C@@](C(=O)OC)(c3cc4c(cc3OC)N(C=O)[C@H]3[C@@](O)(C(=O)OC)[C@H](OC(C)=O)[C@]5(CC)C=CCN6CC[C@]43[C@@H]65)C2)C1 [vincristine, Vincristine]
- oral / gastrointestinal absorption ([2]; in vivo, po): Unpredictable absorption

Structure (SMILES): N.N.[Cl][Pt][Cl] [Cisplatin]
- oral / gastrointestinal absorption ([2]; in vivo, po): not absorbed orally

Structure (SMILES): O=NN(CCCl)C(=O)NC1CCCCC1 [Lomustine, 1-(2-chloro-ethyl)-3-cyclohexyl-1 nitrosourea]
- radioactivity excreted in the form of degradation products ([2]; in vivo, po): about half

Structure (SMILES): Cc1c2oc3c(C)ccc(C(=O)N[C@@H]4C(=O)N[C@H](C(C)C)C(=O)N5CCC[C@H]5C(=O)N(C)CC(=O)N(C)[C@@H](C(C)C)C(=O)O[C@@H]4C)c3nc-2c(C(=O)N[C@@H]2C(=O)N[C@H](C(C)C)C(=O)N3CCC[C@H]3C(=O)N(C)CC(=O)N(C)[C@@H](C(C)C)C(=O)O[C@@H]2C)c(N)c1=O [Actinomycin D] (I: T[dV]P[Sar][NMeV] / II: T[dV]P[Sar][NMeV]; ester I:1-I:C, II:1-II:C; linker I:N-II:N via Actinocin(9to1))
- share of the dose excreted intact into the bile ([2]; in vivo): Half of the dose

Structure (SMILES): COc1cccc2c1C(=O)c1c(O)c3c(c(O)c1C2=O)C[C@@](O)(C(=O)CO)C[C@@H]3O[C@H]1C[C@H](N)[C@H](O)[C@H](C)O1 [Doxorubicin, 5,12-Naphthacenedione, (8s-cis)-10-[(3-amino-2,3,6-trideoxy-a-L-lyxo-hexopyranosyl)oxy]-7,8,9,10-tetrahydro-6,8,11-trihydroxy-8-(hydroxyacetyl)-1-methoxy-hydrochloride]
- oral / gastrointestinal absorption ([2]; in vivo, po): absorbed poorly

Structure (SMILES): C=C[C@](C)(O)CC/C=C(\C)C(=O)O[C@H]1[C@H](O)[C@@H](O)[C@H](O[C@@](C)(C=C)CC/C=C(\CO)C(=O)O[C@H]2C[C@]3(C(=O)O[C@@H]4O[C@H](CO)[C@@H](O)[C@H](O)[C@H]4O[C@@H]4O[C@@H](C)[C@H](O[C@@H]5O[C@@H](CO)[C@H](O)[C@H]5O)[C@@H](O[C@@H]5O[C@H](CO)[C@@H](O)[C@H](O)[C@H]5O)[C@H]4O)[C@H](O)C[C@]4(C)C(=CC[C@@H]5[C@@]6(C)CC[C@H](O[C@@H]7O[C@H](CO[C@@H]8O[C@H](C)[C@H](O)[C@H](O)[C@H]8O[C@@H]8OC[C@@H](O)[C@H](O)[C@H]8O)[C@@H](O)[C@H](O)[C@H]7NC(C)=O)C(C)(C)[C@@H]6CC[C@]54C)[C@@H]3CC2(C)C)O[C@@H]1C [Avicin G]
- effect on water transport / water permeability of skin [3]: inhibits water transport in comparison to Avicin D; also recorded: differentially enhance water permeability

Structure (SMILES): CC[C@]1(O)C[C@@H]2CN(CCc3c([nH]c4ccccc34)[C@@](C(=O)OC)(c3cc4c(cc3OC)N(C)[C@H]3[C@@](O)(C(=O)OC)[C@H](OC(C)=O)[C@]5(CC)C=CCN6CC[C@]43[C@@H]65)C2)C1 [vinblastine, Vinblastine]
- plasma half-life after distribution (first) ([2]; after intravenous injection): approximately 1 hours
- plasma half-life after distribution (second) ([2]; after intravenous injection): ~72000 s
- oral / gastrointestinal absorption ([2]; in vivo, po): Unpredictable absorption

Structure (SMILES): CS(=O)(=O)OCCCCOS(C)(=O)=O [Busulfan, 1,4-butanediol dimethanesulfonate]
- hematologic remission with regression or stabilization of organomegaly [6]: Approximately 90%
